Laboratory results reported in patent US10259781B2, “Imaging agents” (THE REGENTS OF THE UNIVERSITY OF MICHIGAN, priority 2012, dated 2019).

Legend:
[1] = tested on: cardiac sympathetic neurons; assay: Isolated working rat heart model: neuronal uptake and clearance kinetics
Protocol: (§1) The radiotracer was infused into the heart for 10 minutes to measure the tracer uptake rate into cardiac sympathetic neurons (Kup, shown in units of ml/min/g tissue wet). Then, the heart was infused with normal heart perfusate to measure the tracer clearance rate from the heart over 2 hours.
(§2) Experiments were conducted to test ^11C-phenoxyethylguanidine (PEG), e.g., to establish baseline values for the NET transport rate (Kup, expressed in units of mL perfusate/min/g wet) and the clearance rate from sympathetic neurons (T1/2, expressed in units of hours).

[2] = tested on: cardiac sympathetic neurons (NET-mediated neuronal uptake); assay: as above; settings: isolated working rat heart (perfused, ex vivo), read-out: clearance rate from sympathetic neurons, major half-time (T1/2) (converted)
Protocol: as §1, §2

[3] = Metabolic breakdown in monkey plasma (reverse-phase HPLC of venous blood samples); assay type: in vivo, rhesus macaque monkey; settings: monkey plasma
Protocol: In some of the microPET studies, venous blood samples (e.g., n=6) were drawn to assess the metabolic breakdown of [^18F]4F-MHPG in plasma (see Table 1). Plasma was processed for injection onto a reverse-phase HPLC system equipped with a radiation detector. The percentages of intact parent tracer and radiolabeled metabolites were determined as a function of time. In this system, [^18F]4-MHPG has a retention time Rt of approximately 11.2 minutes while the main polar radiometabolite formed has an Rt of approximately 7.9 minutes.

[4] = Biodistribution in rats; assay type: in vivo, rat; settings: 30 minutes after injection, n=5
Protocol: During the development of embodiments of the technology, data were collected from bioevaluation studies of [^18F]4F-MHPG. […]
During the development of embodiments of the technology provided herein, the biodistribution of [^18F]4F-MHPG into the organs of rats was assessed. In particular, four time points (Table 3) were collected and used to derive human radiation absorbed dose estimates using the OLINDA/EXM 1.0 software package (see, e.g., Stabin et al. (2005) “OLINDA/EXM; the second-generation personal computer software for internal dose assessment in nuclear medicine”, J Nucl Med. 46: 1023-7). […] These values were entered into the Dynamic Bladder model of OLINDA/EXM, assuming a 4.0-hour void interval. Organs with the highest absorbed dose estimates included the urinary bladder wall (0.666 rad/mCi), […] (0.221 rad/mCi), small intestine (0.201 rad/mCi), and the heart wall (0.201 rad/mCi). An ‘effective dose’ of 0.091 rem/mCi was estimated for [^18F]4F-MHPG. Under United States Federal Regulations governing research with a new radiopharmaceutical (21 CFR § 361.1), the maximum allowable radiation absorbed dose to an individual organ (other than the gonads) is 5 rad. Considering the maximum estimated absorbed dose (urinary bladder wall; 0.666 rad/mCi), initial PET studies in human subjects could use a maximum of 7.5 mCi of [^18F]4F-MHPG. This would correspond to an ‘effective dose’ of 0.68 rem.

[5] = tested on: cardiac sympathetic nerve terminals; assay: MicroPET imaging and myocardial kinetics (compartmental modeling, Patlak graphical analysis) in monkeys; assay type: in vivo, rhesus macaque monkey; settings: indirect evidence from myocardial kinetics in monkeys
Protocol: A series of microPET imaging studies were performed in the macaque model to assess image quality and tracer kinetics. In most of these the time course of the metabolic breakdown of [^18F]4F-MHPG in plasma was also determined. The studies are summarized below in Table 1.
During the development of embodiments of the technology provided herein, the kinetics of [^18F]4F-MHPG in monkey hearts was assessed using either compartmental modeling or Patlak graphical analysis to obtain quantitative measures of regional cardiac sympathetic nerve density.
For some analyses, a simplified compartmental model that assumed irreversible trapping inside nerve terminals was used to estimate the model rate constants K1 (ml/min/g), k2 (min^−1), k3 (min^−1), and a blood volume fraction BV (dimensionless) (see, e.g., FIG. 7). In both the control studies and DMI blocking studies, the model quickly converged to a single global minimum in just a few iterations of the nonlinear regression analysis (FIG. 8). […] This aggregate parameter provides a stable measure of cardiac nerve density that declined in a dose-dependent manner with increasing DMI dose (FIG. 9, “Kinetic modeling”).
For some analyses, Patlak graphical analysis was used, which uses a mathematical transformation of the kinetic data Cp(t) and Ct(t) to generate a Tatlak plot′ having a characteristic linear phase (see, e.g., Patlak and Blasberg (1985) “Graphical evaluation of blood-to-brain transfer constants from multiple-time uptake data. Generalizations.” J Cereb Blood Flow 5: 584-90). The slope of the linear portion of a Patlak plot, Kp (ml/min/g), provides an alternate estimate of the ‘net uptake rate constant’ Ki (ml/min/g). Thus, for the model structure used (FIG. 7), the slope of the Patlak plot is given by Kp≈(K1k3)/(k2+k3).
During the development of embodiments of the technology provided herein, the myocardial kinetics of [^18F]4F-MHPG was assessed using Patlak graphical analysis and metabolite-corrected plasma input functions. In this example, the Patlak plot is highly linear (r^2=1.00) and the estimated Patlak slope Kpatlak=0.252 ml/min/g. […] As such, regional estimates of the Patlak slope from Patlak analysis of the kinetics of [^18F]4F-MHPG serve as robust measures of regional cardiac sympathetic nerve density in patients with heart diseases.

N=C(N)NCCOc1ccc(F)cc1 [4F-PEG, ^11C-4-fluoro-phenoxyethylguanidine]
neuronal uptake rate / NET transport rate (Kup) [1]: 7.25 mL/min/g wet
half-life [2]: 3.5 h

N=[11C](N)NCC(O)c1cccc(O)c1 (centres unmarked) [GMO, [^11C]guanyl-meta-octopamine, reference compound]
T1/2 for metabolic breakdown in plasma [3]: approximately 13 minutes

N=C(N)NCCOc1cccc(O)c1 [MHPEG, ^11C-meta-hydroxy-phenoxyethylguanidine]
neuronal uptake rate / NET transport rate (Kup) [1]: 5.37 mL/min/g wet
vesicular trapping / retention [1]: complete trapping

N=C(N)NCCOc1ccccc1 [PEG, ^11C-phenoxyethylguanidine]
neuronal uptake rate / NET transport rate (Kup) [1]: 5.37 mL/min/g wet
half-life [2]: 5.7 h

N=C(N)NCCc1ccc(F)c(O)c1 [[^11C]4F-MHPG] [^11C-4-fluoro-meta-hydroxyphenethylguanidine]
tissue concentration, adrenal medulla [4]: 0.56 ± 0.21 percentage of the injected dose per gram
tissue concentration, blood [4]: 0.08 ± 0.01 percentage of the injected dose per gram
tissue concentration, left ventricle [4]: 1.77 ± 0.27 percentage of the injected dose per gram
tissue concentration, liver [4]: 1.22 ± 0.18 percentage of the injected dose per gram
tissue concentration, lung [4]: 0.56 ± 0.15 percentage of the injected dose per gram
tissue concentration, muscle [4]: 0.07 ± 0.01 percentage of the injected dose per gram
tissue concentration, spleen [4]: 0.52 ± 0.10 percentage of the injected dose per gram

N=[11C](N)NCCOc1ccc(O)c(F)c1 [^11C-3F-PHPEG, ^11C-3-fluoro-para-hydroxy-phenoxyethylguanidine]
neuronal uptake rate / NET transport rate (Kup) [1]: 4.26 mL/min/g wet

N=[11C](N)NCCOc1ccc(F)c(O)c1 [^11C-4F-MHPEG, ^11C-4-fluoro-meta-phenoxyethylguanidine]
neuronal uptake rate / NET transport rate (Kup) [1]: 2.66 mL/min/g wet
vesicular trapping / retention [1]: effectively trapped inside storage vesicles

N=C(N)NCC1COc2ccc(O)cc2O1 (centres unmarked) [^11C-7H-GOX, ^11C-7-hydroxy-guanoxan]
retention time, compared between the two ring hydroxylated guanoxan analogs [1]: longer retention time
uptake, compared between the two ring hydroxylated guanoxan analogs [1]: more rapid uptake

N=C(N)NCCc1ccc([18F])c(OS(=O)(=O)O)c1 [sulfur conjugate of [^18F]4-MHPG]
activity at the norepinephrine transporter (NET) [5]: inactive
